In brackets after ≈: the same amount, converted by molar mass. Like-named read-outs stand apart in the source and are kept apart here.
Assays:
[1] = test system: E. coli; settings: cited from earlier work
[2] = test system: pathogenic E. coli; settings: 36 pathogenic E. coli resistant to high levels of nalidixic acid; cited from earlier work
[3] = test system: E. coli K-12 nalidixic acid-resistant mutants, Nal1-8; test: MIC determination to nalidixic acid, resistant mutants; assay type: cell-based; settings: Escherichia coli
Experimental: Table 3 recites E. coli K-12 nalidixic acid-resistant mutants, Nal1-8, isolated on 50 μg/ml nalidixic acid. Substitutions in the GyrA protein are indicated, as well as the MIC to nalidixic acid.
(§1) Over twenty different overnight cultures of a total of ˜10^11 E. coli K-12 cells were inoculated on Luria-Bertani (LB)-agar plates containing 50 μg/ml streptomycin or 50 μg/ml nalidixic acid. Resistant mutants emerged, in both cases, at a median frequency of ˜1 in 10^9 CFU, and were picked from different cultures, to reduce the occurrence of sibling mutants. These bacteria were streaked on an agar plate containing the appropriate antibiotic. The rpsL or gyrA genes of resistant mutants emerging on the plate were PCR-amplified followed by DNA sequencing.
(§2) MIC determination was carried out by following the procedure described by Wiegand et al. (19). Briefly, bacterial cells were grown overnight at 32° C. in LB and diluted to 10^7-10^9 CFU/ml. The obtained suspension was serially diluted 10-fold for different spot concentrations, as indicated. Approximately 1 μl of bacterial suspension was then spotted onto selection plates containing different concentrations of either streptomycin or nalidixic acid along with the appropriate selection agent (chloramphenicol or tellurite), as indicated, using a 48-pin replicator. Plates were incubated overnight and photographed using MiniBis Pro (Bio-Imaging Systems). Photographs were digitally manipulated using GIMP2 software to adjust contrast. Liquid-based MIC determination assays were carried out by inoculating serial dilutions of an antibiotic in liquid LB broth with bacterial cultures (OD600 ˜0.05) in 96-well microtiter plates. Plates were incubated overnight at 32° C. and OD600 was then measured. The lowest antibiotic concentration at which the relative growth compared to the “no-drug” control was below 10% was determined as the MIC.

[4] = test system: E. coli K-12 parental strain; test: MIC to streptomycin of the parental strain; assay type: cell-based; settings: Escherichia coli
Experimental: MIC determination was carried out by following the procedure described by Wiegand et al. (19). Briefly, bacterial cells were grown overnight at 32° C. in LB and diluted to 10^7-10^9 CFU/ml. The obtained suspension was serially diluted 10-fold for different spot concentrations, as indicated. Approximately 1 μl of bacterial suspension was then spotted onto selection plates containing different concentrations of either streptomycin or nalidixic acid along with the appropriate selection agent (chloramphenicol or tellurite), as indicated, using a 48-pin replicator. Plates were incubated overnight and photographed using MiniBis Pro (Bio-Imaging Systems). […] Plates were incubated overnight at 32° C. and OD600 was then measured. […]
Minimum inhibitory concentration (MICs) to streptomycin were determined by agar-plate assay (19). […] The MICs throughout the study were also measured in a complementary liquid-determination assay, giving a similar readout (not shown). […] These strains were transformed with the plasmid pRpsL-wt, encoding the wt rpsL, or a control plasmid, pRpsLΔ4, encoding a mock gene (a defective rpsL with a 4-bp deletion that disrupts the reading frame after amino acid 26 of the RpsL protein; see FIG. 1) under a modified early E. coli promoter from phage T7. […] The MICs of the transformed strains to streptomycin were then determined.

[5] = test system: E. coli K-12 streptomycin-resistant mutants, Sm1-22; test: MIC determination to streptomycin, agar-plate assay, resistant mutants; assay type: cell-based; settings: Escherichia coli
Experimental: Table 2 recites the E. coli K-12 streptomycin-resistant mutants, Sm1-22, isolated on 50 μg/ml streptomycin. Substitutions in the RpsL protein are indicated, as well as the MIC to streptomycin.
as §1, §2
Minimum inhibitory concentration (MICs) to streptomycin were determined by agar-plate assay (19). In this assay, ˜10^4 cells are replica-plated on plates with different drug concentrations. The lowest concentration at which there is no visible colony-formation is defined as the MIC. The MICs throughout the study were also measured in a complementary liquid-determination assay, giving a similar readout (not shown). Two representatives of the most common streptomycin-resistant strains obtained above were taken for further study: strains Sm6 and Sm13, harboring mutations in rpsL leading to substitutions of R86S and K88R, respectively. […] These strains were transformed with the plasmid pRpsL-wt, encoding the wt rpsL, or a control plasmid, pRpsLΔ4, encoding a mock gene (a defective rpsL with a 4-bp deletion that disrupts the reading frame after amino acid 26 of the RpsL protein; see FIG. 1) under a modified early E. coli promoter from phage T7. Transformed cells were selected on agar plates supplemented with 35 μg/ml chloramphenicol, as the plasmid encodes chloramphenicol acetyl transferase, which confers chloramphenicol resistance. The MICs of the transformed strains to streptomycin were then determined.

In the case of `O=[Te]([O-])[O-].[K+].[K+]` [tellurite, potassium-tellurite (K2TeO3)], the MIC of tellurite ([1]; E. coli either having or lacking the chromosomal tehAB genes) is listed as 2 µg/mL, the MIC of tellurite ([1]; cells harboring an extrachromosomal tehAB with an active promoter) is listed as 128 µg/mL and the “Increase of MIC of tellurite upon tehAB expression from an active promoter” value ([1]; tehAB expressed from an active promoter (e.g. T7)) is listed as 50-100 fold.

For `CCn1cc(C(=O)O)c(=O)c2ccc(C)nc21` [nalidixic acid], the “MIC of nalidixic acid” value [2] is given as ≥ 256 µg/mL, the MIC ([3]; read-out: MIC to nalidixic acid, mutant Nal1, GyrA S83L) is given as ≥ 50 µg/mL and the MIC ([3]; read-out: MIC to nalidixic acid, mutant Nal2, GyrA S83L) is given as ≥ 50 µg/mL. The MIC ([3]; read-out: MIC to nalidixic acid, mutant Nal3, GyrA S83L) was ≥ 50 µg/mL, the MIC ([3]; read-out: MIC to nalidixic acid, mutant Nal4, GyrA D87G) was 128 µg/mL (≈ 551 µM) and the MIC ([3]; read-out: MIC to nalidixic acid, mutant Nal5, GyrA D87G) was 128 µg/mL (≈ 551 µM). The MIC ([3]; read-out: MIC to nalidixic acid, mutant Nal6, GyrA D87G) was 128 µg/mL (≈ 551 µM), the MIC ([3]; read-out: MIC to nalidixic acid, mutant Nal7, GyrA D87G) was 128 µg/mL (≈ 551 µM) and the MIC ([3]; read-out: MIC to nalidixic acid, mutant Nal8, GyrA D87G) was 128 µg/mL (≈ 551 µM).

For `[H]/N=C(/N)N[C@H]1[C@H](O)[C@@H](O)[C@H](O[C@@H]2O[C@@H](C)[C@](O)(C=O)[C@H]2O[C@@H]2O[C@@H](CO)[C@H](O)[C@@H](O)[C@@H]2NC)[C@@H](N/C(N)=N\[H])[C@@H]1O` [streptomycin], the MIC [4] was 1.56 µg/mL (≈ 2.68 µM), the MIC ([5]; read-out: MIC to streptomycin, mutant Sm1, RpsL P42S) was ≥ 50000 µg/mL and the MIC ([5]; read-out: MIC to streptomycin, mutant Sm3, RpsL K43N) was ≥ 50000 µg/mL. The MIC ([5]; read-out: MIC to streptomycin, mutant Sm4, RpsL R54S) was ≥ 50000 µg/mL, the MIC ([5]; read-out: MIC to streptomycin, mutant Sm5, RpsL R86S) was ≥ 50000 µg/mL and the MIC ([5]; read-out: MIC to streptomycin, mutant Sm6, RpsL R86S) was 100000 µg/mL (≈ 172000 µM). For the same compound, the MIC ([5]; read-out: MIC to streptomycin, mutant Sm7, RpsL R86S) was ≥ 50000 µg/mL, the MIC ([5]; read-out: MIC to streptomycin, mutant Sm8, RpsL R86S) was ≥ 50000 µg/mL and the MIC ([5]; read-out: MIC to streptomycin, mutant Sm9, RpsL R86S) was ≥ 50000 µg/mL. The MIC ([5]; read-out: MIC to streptomycin, mutant Sm10, RpsL R86S) was ≥ 50000 µg/mL, the MIC ([5]; read-out: MIC to streptomycin, mutant Sm11, RpsL K88E) was ≥ 50000 µg/mL and the MIC ([5]; read-out: MIC to streptomycin, mutant Sm22, no substitution in RpsL) was ≥ 50000 µg/mL. For the same compound, the MIC ([5]; read-out: MIC to streptomycin, resistant mutant Sm6 (R86S) without sensitizing construct) was 100 µg/mL and the MIC ([5]; read-out: MIC to streptomycin, resistant mutant Sm13 (K88R) without sensitizing construct) was 200 µg/mL.

From US8865158B2, “Bacteriophages for reducing toxicity of bacteria” (priority 2012, dated 2014)
